# Test results from patent US20060264419A1 (priority 2003, published 2006).
# pIC50: −log10 of the molar value.
# Target: 5-HT2A receptors (Rattus norvegicus, UniProt P14842)
# Assay: in-vitro affinity to 5-HT2A receptors, displacement of [3H]ketanserine (Example A1)
# Format: binding
# Settings: read-out: HT2A IC50
# Text: The 5-HT2A receptors are exposed both to [^3H]ketanserine (a substance which is known for its affinity to the receptor) and also to the test compound. The decrease in the affinity of [^3H]ketanserine to the receptor is an indication of the affinity of the test substance to the 5-HT2A receptor.
# Chain of 5-HT2A receptors (P14842 whole entry): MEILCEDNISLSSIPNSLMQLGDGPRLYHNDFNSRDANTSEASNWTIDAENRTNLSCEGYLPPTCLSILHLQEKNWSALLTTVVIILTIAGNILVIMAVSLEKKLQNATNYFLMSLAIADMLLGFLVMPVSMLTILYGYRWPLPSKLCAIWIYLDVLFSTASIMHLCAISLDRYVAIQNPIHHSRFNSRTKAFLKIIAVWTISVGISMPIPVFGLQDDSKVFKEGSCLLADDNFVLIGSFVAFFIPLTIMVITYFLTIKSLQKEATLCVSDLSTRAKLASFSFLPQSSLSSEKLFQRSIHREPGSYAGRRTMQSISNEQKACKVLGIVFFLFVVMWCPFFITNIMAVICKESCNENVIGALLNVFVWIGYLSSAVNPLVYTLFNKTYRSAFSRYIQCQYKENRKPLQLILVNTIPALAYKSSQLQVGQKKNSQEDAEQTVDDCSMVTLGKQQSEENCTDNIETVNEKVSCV
row,SMILES,pIC50
1,"Fc1ccccc1-c1c(C=CCN2CCOCC2)cnn1-c1ccc(-c2ccccc2)cc1 [Example 908, 4-{3-[1-Biphenyl-4-yl-5-(2-fluorophenyl)-1H-pyrazol-4-yl]allyl}morpholine]",7.77
2,"Fc1ccccc1-c1c(CNCCCn2ccnc2)cnn1-c1ccc(-c2ccccc2)cc1 [Example 1001, [1-Biphenyl-4-yl-5-(2-fluorophenyl)-1H-pyrazol-4-ylmethyl]-(3-imidazol-1-ylpropyl)amine]",6.77
3,"Cc1cc(CNCc2cnn(-c3ccc(-c4ccccc4)cc3)c2-c2ccccc2)no1 [Example 1023, (1-Biphenyl-4-yl-5-phenyl-1H-pyrazol-4-yl-methyl)-(5-methylisoxazol-3-ylmethyl)amine]",6.62
4,"Fc1ccccc1-c1c(CNC2CCNCC2)cnn1-c1ccc(-c2ccccc2)cc1 [Example 1058, [1-Biphenyl-4-yl-5-(2-fluorophenyl)-1H-pyrazol-4-ylmethyl]piperidin-4-ylamine]",6.33
5,"Cc1cccc(-c2c(CN3CCN(C)CC3)cnn2-c2ccc(-c3ccc(F)cc3)cc2)c1 [Example 940, 1-[1-(4′-Fluorobiphenyl-4-yl)-5-m-tolyl-1H-pyrazol-4-ylmethyl]-4-methylpiperazine]",7.43

# Continued, values first:
row,pIC50,SMILES
1,7.14,"Cc1ccccc1-c1c(CN2CCN(C)CC2)cnn1-c1ccc(-c2ccc(F)cc2)cc1 [Example 966, 1-[1-(4′-Fluorobiphenyl-4-yl)-5-o-tolyl-1H-pyrazol-4-ylmethyl]-4-methyl-piperazine]"
2,7.09,"CN(C)Cc1ccccc1-c1ccc(-n2ncc(CN3CCN(C)CC3)c2-c2ccccc2F)cc1 [Example 970, {4′-[5-(2-Fluorophenyl)-4-(4-methyl-piperazin-1-ylmethyl)pyrazol-1-yl]biphenyl-2-ylmethyl}-dimethylamine]"
3,6.57,"O=C(NCCO)C1CCN(Cc2cnn(-c3ccc(-c4ccccc4)cc3)c2-c2ccccc2F)CC1 [Example 1030, N-(2-Hydroxyethyl)-1-[1-biphenyl-4-yl-5-(2-fluorophenyl)-1H-pyrazol-4-ylmethyl]piperidine-4-carboxamide]"
4,6.89,"CN1CCN(Cc2cnn(-c3ccc(Br)cc3)c2-c2ccccc2F)CC1 [Example 989, 1-[1-(4-Bromophenyl)-5-(2-fluoro-phenyl)-1H-pyrazol-4-ylmethyl]-4-methylpiperazine]"
5,6.85,"CN1CCN(Cc2cnn(-c3ccc(-c4cccc(C#N)c4)cc3)c2-c2ccccc2F)CC1 [Example 993, 4′-[5-(2-Fluorophenyl)-4-(4-methylpiperazin-1-ylmethyl)pyrazol-1-yl]biphenyl-3-carbonitrile]"
6,6.96,"Fc1ccc(-c2ccc(-n3ncc(CN(Cc4cnn(-c5ccc(-c6ccc(F)cc6)cc5)c4-c4ccco4)C4CC4)c3-c3ccco3)cc2)cc1 [Example 982, Cyclopropylbis-[1-(4′-fluorobiphenyl-4-yl)-5-furan-2-yl-1H-pyrazol-4-ylmethyl]amine]"
7,7.24,"CCOC(=O)N1CCN(Cc2cnn(-c3ccc(-c4ccccc4)cc3)c2-c2ccccc2F)CC1 [Example 957, Ethyl 4-[1-biphenyl-4-yl-5-(2-fluoro-phenyl)-1H-pyrazol-4-ylmethyl]piperazine-1-carboxylate]"

# Same assay, conditions: target not given; description names affinity to 5-HT2A receptors; read-out: IC50
row,SMILES,pIC50
1,"CN1CCC(N(C)Cc2cnn(-c3ccc(-c4ccc(F)cc4)nc3)c2-c2ccccc2F)CC1 [(143), {5-(2-Fluorophenyl)-1-[6-(4-fluorophenyl)pyridin-3-yl]-1H-pyrazol-4-ylmethyl}methyl-(1-methylpiperidin-4-yl)amine]",6.60
2,"Fc1ccccc1-c1c(CCCN2CCOCC2)cnn1-c1ccc(-c2ccccc2)cc1 [(47), 4-{3-[1-Biphenyl-4-yl-5-(2-fluorophenyl)-1H-pyrazol-4-yl]propyl}morpholine]",7.64
3,"CN(C)C1CCN(Cc2cnn(-c3ccc(-c4ccccc4)cc3)c2-c2ccccc2F)C1 (stereo not drawn) [(167), {1-[1-Biphenyl-4-yl-5-(2-fluorophenyl)-1H-pyrazol-4-ylmethyl]-pyrrolidin-3-yl}dimethylamine]",6.64
4,"CN1CCN(Cc2cc(-c3ccccc3F)n(-c3ccc(-c4ccccc4)cc3)n2)CC1 [(45), 1-[1-Biphenyl-4-yl-5-(2-fluorophenyl)-1H-pyrazol-3-ylmethyl]-4-methylpiperazine]",6.52
5,"Fc1ccc(-c2ccc(-n3ncc(CNc4ccon4)c3-c3ccccc3F)cn2)cc1 [(174), {5-(2-Fluorophenyl)-1-[6-(4-fluorophenyl)pyridin-3-yl]-1H-pyrazol-4-ylmethyl}isoxazol-3-ylamine]",6.49
6,"CC(C)(C)OC(=O)N1CCN(Cc2cnn(-c3ccc(-c4ccccc4)cc3)c2-c2ccccc2F)CC1 [(54), tert-Butyl 4-[1-Biphenyl-4-yl-5-(2-fluorophenyl)-1H-pyrazol-4-ylmethyl]piperazine-1-carboxylate]",7.09
7,"CN1CCN(Cc2cnn(-c3ccc(-c4ccc(F)cc4)cc3)c2-c2ccccc2F)CC1 [(64), 1-[1-(4′-Fluorobiphenyl-4-yl)-5-(2-fluorophenyl)-1H-pyrazol-4-ylmethyl]-4-methylpiperazine]",8.11
8,"CN1CCN(Cc2cnn(-c3ccc(-c4cccnc4)cc3)c2-c2ccccc2F)CC1 [(120), 1-[5-(2-Fluorophenyl)-1-(4-pyridin-3-ylphenyl)-1H-pyrazol-4-ylmethyl]-4-methylpiperazine]",6.77
9,"Fc1ccccc1-c1c(CN2CCCCC2)cnn1-c1ccc(-c2ccccc2)cc1 [(23), 1-[1-Biphenyl-4-yl-5-(2-fluorophenyl)-1H-pyrazol-4-ylmethyl]-piperidine]",7.52
10,"CC(C)(C)OC(=O)CNCc1cnn(-c2ccc(-c3ccccc3)cc2)c1-c1cccnc1 [(179), tert-Butyl [(1-biphenyl-4-yl-5-pyridin-3-yl-1H-pyrazol-4-ylmethyl)amino]acetate]",6.00
11,"Fc1ccc(F)c(-c2ccc(-n3ncc(CNc4cc[nH]n4)c3-c3ccccc3F)cc2)c1 [(140), [1-(2′,5′-Difluorobiphenyl-4-yl)-5-(2-fluorophenyl)-1H-pyrazol-4-ylmethyl]-(1H-pyrazol-3-yl)amine]",6.74
12,"O=C(O)CNCc1cnn(-c2ccc(-c3ccccc3)cc2)c1-c1ccccc1F [(29), {[1-Biphenyl-4-yl-5-(2-fluorophenyl)-1H-pyrazol-4-ylmethyl]-amino}acetic acid]",5.77
13,"CN1CCC(N(C)Cc2cnn(-c3ccc(-c4ccccc4)cc3)c2-c2ccccc2F)CC1 [(39), [1-Biphenyl-4-yl-5-(2-fluorophenyl)-1H-pyrazol-4-ylmethyl]-methyl-(1-methylpiperidin-4-yl)amine]",6.80
14,"CN1CCC(N(C)Cc2cnn(-c3ccc(-c4ccccc4)cc3)c2-c2ccccc2F)C1 (stereo not drawn) [(168), [1-Biphenyl-4-yl-5-(2-fluorophenyl)-1H-pyrazol-4-ylmethyl]-methyl-(1-methylpyrrolidin-3-yl)amine]",7.80
15,"NCCc1cnn(-c2ccc(-c3ccccc3)cc2)c1-c1ccccc1F [(188), 2-[1-Biphenyl-4-yl-5-(2-fluorophenyl)-1H-pyrazol-4-yl]-ethylamine]",5.85
16,"COc1ccccc1-c1c(CN2CCN(C)CC2)cnn1-c1ccc(-c2ccccc2F)cc1 [(104), 1-[1-(2′-Fluorobiphenyl-4-yl)-5-(2-methoxyphenyl)-1H-pyrazol-4-ylmethyl]-4-methylpiperazine]",7.28
17,"Fc1ccccc1-c1c(CNc2ccon2)cnn1-c1ccc(-c2ccccc2)cc1 [(138), [1-Biphenyl-4-yl-5-(2-fluorophenyl)-1H-pyrazol-4-ylmethyl]-isoxazol-3-ylamine]",6.62
18,"COCCN(C)Cc1cnn(-c2ccc(-c3ccccc3F)nc2)c1-c1ccccc1F [(157), {5-(2-Fluorophenyl)-1-[6-(2-fluorophenyl)pyridin-3-yl]-1H-pyrazol-4-ylmethyl}-(2-methoxyethyl)methylamine]",5.70
19,"CCOC(=O)CNCc1cnn(-c2ccc(-c3ccccc3F)nc2)c1-c1ccccc1F [(148), Ethyl ({5-(2-fluorophenyl)-1-[6-(2-fluorophenyl)pyridin-3-yl]-1H-pyrazol-4-ylmethyl}amino)acetate]",5.80

# Now from value to compound:
row,pIC50,SMILES
1,6.66,"CN1CCN(Cc2cnn(-c3ccc(-c4ccccc4)nc3)c2-c2ccccc2F)CC1 [(57), 1-[5-(2-Fluorophenyl)-1-(6-phenylpyridin-3-yl)-1H-pyrazol-4-ylmethyl]-4-methylpiperazine]"
2,6.85,"CN1CCN(Cc2cnn(-c3ccc(-c4ccccc4)nc3)c2-c2cccnc2)CC1 [(198), 1-Methyl-4-[1-(6-phenylpyridin-3-yl)-5-pyridin-3-yl-1H-pyrazol-4-ylmethyl]piperazine]"
3,5.85,"CC(=O)OCc1cnn(-c2ccc(-c3ccccc3)cc2)c1-c1ccccc1F [(22), 1-Biphenyl-4-yl-5-(2-fluorophenyl)-1H-pyrazol-4-ylmethyl acetate]"
4,6.77,"Fc1ccccc1-c1c(CNCCc2c[nH]cn2)cnn1-c1ccc(-c2ccccc2)cc1 [(154), [1-Biphenyl-4-yl-5-(2-fluorophenyl)-1H-pyrazol-4-ylmethyl]-[2-(1H-imidazol-4-yl)ethyl]amine]"
5,6.57,"CCN(CC)CC1CCCCN1Cc1cnn(-c2ccc(-c3ccccc3)cc2)c1-c1ccccc1F (stereo not drawn) [(51), {1-[1-Biphenyl-4-yl-5-(2-fluorophenyl)-1H-pyrazol-4-ylmethyl]-piperidin-2-ylmethyl}diethylamine]"
6,6.92,"COC(=O)c1cc(NCc2cnn(-c3ccc(-c4ccccc4)cc3)c2-c2ccccc2F)cn1C [(162), Methyl 4-{[1-biphenyl-4-yl-5-(2-fluorophenyl)-1H-pyrazol-4-ylmethyl]amino}-1-methyl-1H-pyrrole-2-carboxylate]"
7,7.18,"Fc1ccccc1-c1c(CN2CCC(Cc3cccnc3)CC2)cnn1-c1ccc(-c2ccccc2)cc1 [(195), 3-{1-[1-Biphenyl-4-yl-5-(2-fluorophenyl)-1H-pyrazol-4-ylmethyl]piperidin-4-ylmethyl}pyridine]"
8,5.96,"Fc1ccccc1-c1c(CN2CCOCC2)cnn1-c1ccc(-c2ccccc2)cc1 [(28), 4-[1-Biphenyl-4-yl-5-(2-fluorophenyl)-1H-pyrazol-4-ylmethyl]-morpholine]"
